Data taken from US20220110910A1, “CANNABINOID-CONTAINING COMPLEX MIXTURES FOR THE TREATMENT OF CYTOKINE RELEASE SYNDROME WHILE PRESERVING KEY ANTI-VIRAL IMMUNE REACTIONS” (GBS Global BioPharma, Inc., priority 2020, published 2022).

Columns and labels:
Format in all cases: cell-based, human
[1] = test system: PBMC; test: Immune modulation survey of single compounds (all functional responses); conditions: 0.001-10 μM
Experimental: In immunological activity experiments, PBMC suspensions were pre-treated with cannabinoid and/or terpene compounds for 30 minutes before treatment with designated stimuli, cultured in 96 well tissue culture plates, and incubated at 37° C. and 5.0% CO2. In pDC experiments, cell suspensions were stimulated with CpG-ODN Type A 2216 (15 μg/mL) (InvivoGen©, San Diego, Calif.) following treatment with cannabinoids. Golgi transport inhibitors Monensin (2 μM)/Brefeldin A (3.0 μg/mL) (Thermo Fisher Scientific, Waltham, Mass.) were added to culture 3 hours post-stimulation, and after 7 hours of stimulation cells were harvested for evaluation by flow cytometry for IFNα and TNFα. […] CD25 and CD69 were assessed by flow cytometry 24 hours post-stimulation. In proliferation experiments, cell suspensions were incubated with CFSE Cell Division Tracker (Biolegend) according to manufacturer protocols, harvested 4 days post-stimulation and assessed by flow cytometry. […]
In brief, pDC, monocyte and T cell were identified using antibodies directed against unique epitopes for each cell type and analyzed by flow cytometry. […] For intracellular staining, fixed cells were permeabilized in BD Permwash and incubated with appropriate antibodies and 7% human AB serum. pDC were identified as CD303+and assessed for intracellular IFNα and TNFα. […]

[2] = test system: monocytes; test: IL-1β ELISA in supernatants of LPS-stimulated PBMC
Experimental: (§1) In immunological activity experiments, PBMC suspensions were pre-treated with cannabinoid and/or terpene compounds for 30 minutes before treatment with designated stimuli, cultured in 96 well tissue culture plates, and incubated at 37° C. and 5.0% CO2. In pDC experiments, cell suspensions were stimulated with CpG-ODN Type A 2216 (15 μg/mL) (InvivoGen©, San Diego, Calif.) following treatment with cannabinoids. Golgi transport inhibitors Monensin (2 μM)/Brefeldin A (3.0 μg/mL) (Thermo Fisher Scientific, Waltham, Mass.) were added to culture 3 hours post-stimulation, and after 7 hours of stimulation cells were harvested for evaluation by flow cytometry for IFNα and TNFα. In monocyte experiments, cell suspensions were stimulated with 1000 ng/mL LPS (S. typhosa, Sigma Aldrich, St. Louis, Mo.) for 18 hours before harvesting supernatants for IL-1β, Golgi blocked for 6 hours before harvesting cells for assessment of IL-6, or cultured for 48 hours before harvesting cells for assessment of HLA-DR, CD80, and CD86. In phagocytosis experiments, cell suspensions were treated with 3.0 mg/mL of pHrodo Green BioParticles (Thermo Fisher). In T cell experiments, cells were plated on 96 well tissue culture plates pre-coated with 5.0 μg/mL anti-CD3 (clone UCHT1, Biolegend, San Diego, Calif.) and stimulated with 5.0 μg/mL anti-CD28 (clone 28.2, Biolegend) and supplemented with 5.0 ng/mL IL-2 (Roche Applied Science, Indianapolis, Ind.). CD25 and CD69 were assessed by flow cytometry 24 hours post-stimulation. In proliferation experiments, cell suspensions were incubated with CFSE Cell Division Tracker (Biolegend) according to manufacturer protocols, harvested 4 days post-stimulation and assessed by flow cytometry. Cell suspensions were further stimulated with 50 ng/mL phorbol 12-myristate 13-acetate (PMA) and 1000 ng/mL ionomycin (Io) at 4 days post-stimulation for 18 hours, Golgi blocked for 6 hours, and harvested for IL-4 and IFNγ assessment by flow cytometry.
To quantify IL-1β produced by monocytes, supernatants were collected from LPS stimulated cell suspensions after 18 hours and frozen at −80° C. ELISA MAX from Biolegend was used as per manufacturer protocol to quantify IL-1β to a sensitivity of […].

[3] = test system: CD4+ T cells; test: Intracellular IFNγ and IL-4 after anti-CD3/anti-CD28 stimulation and PMA/ionomycin; conditions: 0.001 μM; vs vehicle
Experimental: as §1
(§2) In brief, pDC, monocyte and T cell were identified using antibodies directed against unique epitopes for each cell type and analyzed by flow cytometry. Cells were fixed in BD CytoFix and resuspended in FACS buffer for extracellular staining. […] For intracellular staining, fixed cells were permeabilized in BD Permwash and incubated with appropriate antibodies and 7% human AB serum. pDC were identified as CD303+and assessed for intracellular IFNα and TNFα. Monocytes were identified as CD14+ and assessed for extracellular HLA-DR, CD80, CD86, and intracellular TNFα and IL-6. […] T cells were identified as CD3+ and T cell subsets identified by CD4+ and CD8+ and assessed for extracellular CD25 and CD69 and intracellular IFNγ and IL-4. […]

[4] = test system: CD8+ T cells; test: Intracellular IFNγ after anti-CD3/anti-CD28 stimulation and PMA/ionomycin; conditions: 0.001 μM; vs vehicle
Experimental: as §1, §2

[5] = test system: plasmacytoid dendritic cells (pDC); test: IFNα and TNFα in pDC of PBMC stimulated with CpG-ODN (intracellular staining); conditions: vs vehicle; for IFNα production by pDC: 0.01, 0.1, and 1.0 μM
Experimental: as §1
(§3) In brief, pDC, monocyte and T cell were identified using antibodies directed against unique epitopes for each cell type and analyzed by flow cytometry. Cells were fixed in BD CytoFix and resuspended in FACS buffer for extracellular staining. To determine the changes in cell viability in mixed PBMC, gates were first set on singlet events, then CD45+ cells, then populations identified by CD3+ (T cells) and CD14+ (monocytes), and then 7-AAD- for viability. Likewise, for pDC viability experiments, pDC were identified as CD303+ and viable by exclusion of Near IR L/D stain (Life Technologies, Carlsbad, Calif.). For intracellular staining, fixed cells were permeabilized in BD Permwash and incubated with appropriate antibodies and 7% human AB serum. pDC were identified as CD303+and assessed for intracellular IFNα and TNFα. Monocytes were identified as CD14+ and assessed for extracellular HLA-DR, CD80, CD86, and intracellular TNFα and IL-6. In phagocytosis experiments, PBMC were identified as CD45+ and monocytes were identified based on side scatter and then phagocytosing monocytes. T cells were identified as CD3+ and T cell subsets identified by CD4+ and CD8+ and assessed for extracellular CD25 and CD69 and intracellular IFNγ and IL-4. To analyze T cell proliferation, FlowJo 10.0 proliferation tool was used by setting the undivided peak of CFSE stained cells in each sample.

[6] = test system: CD4+ T cells; test: T cell proliferation (CFSE, FlowJo Proliferation tool); conditions: 0.01 μM
Experimental: as §1, §2

[7] = test system: CD8+ T cells; test: as above; conditions: 0.01 μM
Experimental: as §1, §2

[8] = test system: monocytes; test: TNFα+ monocytes after CpG-ODN stimulation (intracellular staining); conditions: 10 μM; CpG-ODN 15 μg/mL, 6 hours; vs vehicle
Experimental: FIGS. 9A-9B reveal the TNFα decreasing potential of cannabinol (CBN). […] PBMC were isolated from human peripheral blood and pre-treated with the indicated concentrations of cannabinol for 30 minutes, followed by stimulation with 15 μg/mL CpG-ODN for 6 hours (FIG. 9A). Cells were non-enzymatically released from culture plates and assessed for the percentage of TNFα+ monocytes (FIG. 9A) by intracellular staining. For FIG. 9B, PBMC were isolated from human peripheral blood and pre-treated with the indicated concentrations of cannabinol for 30 minutes, followed by treatment with 3.0 mg/mL of pHrodo Green BioParticles (FIG. 9B). In FIG. 9B, cells were treated with 3.0 mg/mL of pHrodo Green BioParticles and assessed for phagocytosis monocytes by flow cytometry within 2 hours. Data are normalized to each donor's vehicle control when appropriate and presented as mean±SEM. N=4-6 donors per treatment group. […] *p<0.05 when compared to VH (FIG. 9A), or **p<0.01 when compared to VH (FIG. 9B), by repeated measure one-way ANOVA with Dunnett's posttest.
as §2

[9] = test system: monocytes; test: Co-stimulatory markers HLA-DR, CD80, CD86 on monocytes after LPS; conditions: 2 days
Experimental: as §1, §3

[10] = test system: CD4+ T cells; test: T cell activation markers CD25 and CD69, 24 hours post-stimulation; conditions: concentration not given
Experimental: as §1, with “In T cell experiments, cells were plated on 96 well tissue culture plates pre-coated with 5.0 μg/mL anti-CD3 (clone UCHT1, Biolegend, San Diego, Calif.) and stimulated with 5.0 μg/mL anti-CD28 (clone 28.2, Biolegend) and supplemented with 5.0 ng/mL IL-2 (Roche Applied Science, Indianapolis, Ind.).” left out, “Cell suspensions were further stimulated with 50 ng/mL phorbol 12-myristate 13-acetate (PMA) and 1000 ng/mL ionomycin (Io) at 4 days post-stimulation for 18 hours, Golgi blocked for 6 hours, and harvested for IL-4 and IFNγ assessment by flow cytometry.” left out
as §2, with “cytometry.” for “cytometry. Cells were fixed in BD CytoFix and resuspended in FACS buffer for extracellular staining.”

[11] = indicated concentrations (0.001-10 μM)

With `C=CC(C)(O)CCC=C(C)C` (centres unmarked) [Linalool] the “any other immunological functional responses measured in the immune modulation survey” value [1] was “did not have any statistically significant effects”, the “IL-1β secretion in monocytes” value ([2]; 0.001 μM, LPS 1000 ng/mL, vs vehicle) was “significantly increased” and the IL-1β production ([2]; any other concentration (tested 0.001-10 μM, other than 0.001 μM)) was “did not exhibit any effects”.
With `C/C(=C\CO)CCC[C@H](C)CCC[C@H](C)CCCC(C)C` [Phytol A, phytol] the “IFNγ in CD4+ T cells” value [3] was “significantly decreased” and the “IFNγ in CD8+ T cells” value [4] was “not statistically significant”.
`CCCCCc1cc(O)c2c(c1)OC(C)(C)[C@@H]1CCC(C)=C[C@@H]21` [THC, (6aR,10aR)-delta-9-tetrahydrocannabinol, reference compound] was tested, and the “IFNα in plasmacytoid dendritic cells (pDC)” value ([5]; 10 μM, CpG-ODN 15 μg/mL) was “significantly decreased”, the “TNFα in plasmacytoid dendritic cells (pDC)” value ([5]; 10 μM, CpG-ODN 15 μg/mL) was “significantly decreased” and the IL-1β in monocytes ([2]; 10 μM, LPS 1000 ng/mL, vs vehicle) was “significantly decreased”. The “proliferation of CD4+ T cells” value [6] was “significantly increased”, the “proliferation of CD8+ T cells” value [7] was “significantly increased” and the TNFα in monocytes [8] was “significantly decreased”. The “CD80+ co-stimulatory marker in monocytes” value ([9]; 10 μM, vs vehicle) was “significantly decreased”, the “CD86+ co-stimulatory marker in monocytes” value [9, 11] was “did not cause a statistically significant change” and the “HLA-DR+ co-stimulatory marker in monocytes” value [9, 11] was “did not cause a statistically significant change”.
For `C=CC(C)(O)CC/C=C(\C)CCC=C(C)C` (stereo not drawn) [trans-nerolidol, trans nerolidol], the IL-1β in monocytes ([2]; 0.01 μM, LPS 1000 ng/mL, vs vehicle) was “enhanced”, the IL-1β in monocytes ([2]; 0.01 μM, LPS 1000 ng/mL, vs vehicle, listed as tN) was “significantly increased” and the “% CD25+ in CD4+ T cells (activation marker)” value [10] was “increased”.
For `CC1=CCC2CC1C2(C)C` (stereo not drawn) [α-Pinene, α-pinene], the “IFNα production by pDC” value ([5]; CpG-ODN) was “significantly suppressed”, the “IFNα production by pDC” value ([5]; CpG-ODN, listed as Alpha-Pinene) was “significantly decreased” and the “TNFα production by pDC” value ([5]; 0.1 and 1.0 μM, CpG-ODN) was “significantly suppressed”.
